Columns and labels:
[1] = test system: San Carlos virus; experiment: Inhibition of cytopathic activity (CPE) of San Carlos virus in HEL tissue culture; assay type: cell-based, San Carlos virus (adenovirus); conditions: for CPE with 100 TCID50 doses of San Carlos virus: HEL cells
Protocol: The anti-viral activity of 2,4-dimethylphenol was studied in the following manner. Tissue cultures derived from human embryonic lung (HEL) were grown and maintained as monolayers in 32 ounce prescription bottles using growth medium consisting of 85% synthetic mixture No. 199 plus 15% unfiltered fetal bovine serum (FBS) adjusted to pH 7.4. Tube cultures of HEL cells were prepared in similar fashion and used in assays for anti-viral activity. During chemotherapy tests, the maintenance medium consisted of synthetic mixture No. 199 with 7.5% FBS. The virus spectrum in tissue culture consisted of two DNA viruses, a San Carlos virus isolated by Davis [see Science 133, 2059, 1961] and later identified as an adenovirus, and the HF strain of herpes simplex virus. In addition, a RNA virus represented by measles was included in the examples.
In performing the initial assays, the tissue cultures were treated prophylactically and the virus was treated in vitro with decreasing 2,4-dimethylphenol concentrations ranging from […] (2 × 10^-6) to 2 attograms (ag) (2 × 10^-18) per ml. The procedure consisted of pretreating tube cultures of HEL cells for two to three days with growth medium containing varying concentrations of 2,4-dimethylphenol. After the prophylactic treatment, the test fluids were removed and replaced with fresh maintenance medium. At this time, 200 TCID50 doses of virus were mixed in vitro with the same decreasing concentrations of the distillate used to pretreat the cells, then the mixture was inoculated into replicate culture of HEL cells so that the final incolum consisted of 100 TCID50 doses of virus in tubes with 2,4-dimethylphenol at the same level used to prophylactically treat the cells.
The same number of infected control tubes were handled in the same way except that 2,4-dimethylphenol was omitted from all media. Culture tubes were rotated at 37° C. and examined daily for a period of 7 days for cytopathic activity (CPE). […] By the same token, the CPE of herpes virus was inhibited by both the 10^-12 and 10^-15 level, possibly indicating two active components. […]

[2] = test system: chronic respiratory disease (CRD); experiment: Treatment of chronic respiratory disease (CRD) in spontaneously hypertensive (SH) rats; assay type: in vivo, rat (SH); on Dead animals: tested at 0.001 ppm; on Ill animals: tested at 0.001 ppm; on Total number of rats: tested at 0.001 ppm; on Well animals: tested at 0.001 ppm; on animals showing a trace of secretions around their necks: tested at 0.001 ppm; on rats alive in the treated group: tested at 0.001 ppm
Protocol: Treatment of Chronic Respiratory Disease (CRD) in laboratory rats: chronic respiratory disease symptoms include coughing and wheezing accompanied by nasal secretions.
One-half of a colony of spontaneously hypertensive (SH) rats was treated with 2,4-dimethylphenol in their drinking water at a concentration of one part per billion. The other half of this colony was given only tap water, and both groups observed for 76 days. The second experiment was with a highly inbred strain (GM) of rats that were about to expire, because of chronic respiratory infection. […] Both groups, the SH rats and the GM rats, were not breeding because of their infections and were in seriously poor health.
They were only 42 SH rats left in the colony. They were divided into two groups of 21 rats each. Approximately one-half the sick rats were selected for each group. […] This was best observed as a brown secretion from the nose and wiped around the neck by the rat's front paws. The experimental group was treated continuously with one part per billion (1 PPB) of 2,4-dimethylphenol in their drinking fluid. Certain of these rats were so ill that they were near death when the experiment was started and they died in spite of treatment.

[3] = test system: Mycoplasma pulmonis (ATCC 19612); experiment: Rats infected intranasally with Mycoplasma pulmonis: lung pathology and breeding; assay type: in vivo, Mycoplasma pulmonis (host: rat); conditions: 1 PPB in drinking water 58 days; three M. pulmonis infected female rats
From the text: Attempts were made to test the effect of infecting rats with Mycoplasma pulmonis (ATCC 19612) so that they could transmit the disease to their cage mates and, also allowed them to breed. This was also done to test if the mothers would pass the infection on to their litters. These rats were purchased from a laboratory in Indianapolis, Indiana and they were divided into 6 groups with male animals in each group. In the 5 experimental groups, a total of 15 female rats out of 30, and in the control group 4 female rats out of 8 were infected intranasally with Mycoplasma pulmonis (ATCC 19612). There were two male rats per experimental group and 3 for the controls totaling 13 male rats, and none of these were infected with M. pulmonis.
The experimental groups (8 rats each) and control group were treated as follows:
All rats were fed ad libitum rat chow, and their cages were cleaned 5-6 times weekly. For the 5 experimental groups, the 2,4 DMP was dissolved in distilled water used for their drinking fluid while the control only received distilled water. There were times when the rats spilled excessive amounts of their drinking water and this caused a certain amount of the phenol to be evaporated from these cages, particularly those groups receiving the higher concentrations of the phenol. […]

[4] = day 14, 1 PPB in drinking water, SH rats
[5] = day 22, 1 PPB in drinking water, SH rats
[6] = day 29, 1 PPB in drinking water, SH rats
[7] = day 36, 1 PPB in drinking water, SH rats
[8] = day 43, 1 PPB in drinking water, SH rats

## Cc1ccc(O)c(C)c1 [2,4-dimethylphenol]
[1]; 2,4-dimethylphenol 10^-4 grams 2X
  CPE with 100 TCID50 doses of San Carlos virus: 4+ (100% of cells infected with selected virus)
[1]; 10^-5 grams 2X
  CPE with 100 TCID50 doses of San Carlos virus: 2+ (50% of cells infected with selected virus)
[1]; 10^-6 grams 2X
  CPE with 100 TCID50 doses of San Carlos virus: 2+ (50% of cells infected with selected virus)
[1]; 10^-7 grams 2X
  CPE with 100 TCID50 doses of San Carlos virus: 1+ (25% of cells infected with selected virus)
[1]; 10^-8 grams 2X
  CPE with 100 TCID50 doses of San Carlos virus: 1+ (25% of cells infected with selected virus)
[1]; 10^-9 grams 2X
  CPE with 100 TCID50 doses of San Carlos virus: 1+ (25% of cells infected with selected virus)
[1]; 10^-10 grams 2X
  CPE with 100 TCID50 doses of San Carlos virus: 1+ (25% of cells infected with selected virus)
[1]; 10^-11 grams 2X
  CPE with 100 TCID50 doses of San Carlos virus: 1+ (25% of cells infected with selected virus)
[1]; 10^-12 grams 2X
  CPE with 100 TCID50 doses of San Carlos virus: 2+ (50% of cells infected with selected virus)
[1]; 10^-13 grams 2X
  CPE with 100 TCID50 doses of San Carlos virus: 2+ (50% of cells infected with selected virus)
[1]; 10^-14 grams 2X
  CPE with 100 TCID50 doses of San Carlos virus: 3+ (75% of cells infected with selected virus)
[1]; picograms, 10^-10 to 10^-12 per ml of medium
  inhibition of CPE produced by San Carlos virus: slight but consistent inhibition
[2]; [4]
  Dead animals: 1
  Ill animals: 8
  Well animals: 12
[2]; day 14, 1 PPB in drinking water, SH rats, 21 at start
  Total number of rats: 21
[2]; [5]
  Dead animals: 1
  Ill animals: 7
  Well animals: 12
[2]; day 22, 1 PPB in drinking water, SH rats, 21 at start
  Total number of rats: 20
[2]; [6]
  Dead animals: 2
  Ill animals: 4
  Well animals: 13
[2]; day 29, 1 PPB in drinking water, SH rats, 21 at start
  Total number of rats: 19
[2]; [7]
  Ill animals: 5
  Well animals: 12
[2]; day 36, 1 PPB in drinking water, SH rats, 21 at start
  Total number of rats: 17
[2]; [8]
  Ill animals: 5
  Well animals: 12
[2]; day 43, 1 PPB in drinking water, SH rats, 21 at start
  Total number of rats: 17
[2]; day 76, 1 PPB in drinking water, SH rats
  Well animals: 12
[2]; day 76, 1 PPB in drinking water, SH rats, 21 at start
  Total number of rats: 17
[2]; day 76, 1 PPB in drinking water, SH rats, minimal infection
  Ill animals: 5
[2]; day 76, visual observation, 1 PPB, SH rats
  infection in the five ill rats: minimal infection from visual observation
[2]; end of 76 days, 1 PPB in drinking water, SH rats, 21 at start
  rats alive in the treated group: 17
[2]; end of 76 days, of 17 rats alive, 1 PPB, SH rats
  animals showing a trace of secretions around their necks: 5
[2]; more than 2 years, 1 PPB in drinking fluid, combined SH groups
  breeding and colony health: These animals began to breed, and the colony is now healthy
[3]
  lung infection compared with the other four groups and the controls: for all practical purposes, clear of infection

Reference: patent US4084006A, “Method of using dialkylphenols an antiviral agents” (priority 1977, dated 1978)
